These results are taken from US20230075368A1, “IDENTIFICATION OF AN EGFR-BIN3 PATHWAY THAT ACTIVELY SUPPRESSES INVASION AND REDUCES TUMOR SIZE IN GLIOBLASTOMA” (The United States Govemment as represented by the …, priority 2020, published 2023).

For one test, the system named is HB-EGF. As to the kind of experiment: ELISA for HB-EGF in supernatants. The test is classed as cell-based, human. The note with it: tofacitinib 1 μM, 72 hours; GBM12 and GBM6. In general terms: In an ELISA, binding on a coated surface is turned into a signal by an enzyme label.
Another test has as its system EMP1. The test is described as follows: Western blot of EMP1. The test is classed as cell-based, human. The note with it: EGF 50 ng/ml, 24 hours; GBM12 and GBM6. As to the method:
(§1) Whole protein extracts from cells or tumor tissues were analyzed by western blot as previously described (Altieri et al. (2015) Surg. Technol. Int 27: 297-302). Mayo PDX cells were serum starved overnight. Following treatment for specific time, cells were harvested and lysed. The human glioblastoma tissues were ground in liquid nitrogen and then were lysed. EGFR (06-847) antibody was from Millipore. DOCK7 was from Proteintech (Rosemont, Ill.). pEGFR (2236), STAT3 (12640), pSTAT3 (9145), cdc42(4376), and RhoA (4695) antibodies were from Cell Signaling Technology (Danvers, Mass.). TGFα antibody was from R&D system. BIN3 (sc-514396) and (3-Actin (sc-47778) were from Santa Cruz Biotechnology (Dallas, Tex.).
Referring to FIG. 23A-P, EGFR induced EMP1 overexpression drives invasion and is mediated by Nanog. Specifically, cells were transiently transfected with empty or EGFRwt or EGFRvIII vector for 48 hours, and subjected to Western blot analysis for EGFR, pEGFR, BIN3 and EMP1 (FIG. 23A). Similar experiments were performed in GBM14 (FIG. 23B). […] Similar experiments were performed in GBM14 (FIG. 23E). Efficiency of EMP1 knockdown and EGFR overexpression was confirmed by Western blot analysis (FIG. 23F and FIG. 23G). […] FIG. 23J and FIG. 23K show EMP1 mRNA levels in EGFR and EGFRvIII overexpressing GBM12 and GBM14, measured by RT-PCR. […]
For orientation: Immunoblotting shows a protein as a band on a membrane.

The test system of a further test is GBM12 cells. The test is described as follows: Intravital microscopy of GBM cell motility through cranial window. It is filed as in vivo, mice. Conditions: 10 ng EGF injected through cranial window 24 hours before imaging. As to the method:
Two-photon laser intravital microscope combined with cranial window surgery was used to observe cellular movement in vivo. Female athymic nude mice were anesthetized with 2.5% isoflourane and secured in a stereotactic frame. The head was shaved and the scalp was cut in a circular manner. The periosteum was scraped and a drill was used to create a circular cranial window over the front and parietal bone. 10 μL of 1×10^6 cells/ml GBM12 stably expressing H2B-GFP were implanted at a depth of 0.5 mm. Following implantation, a 5 mm silicone-based polydimethylsiloxane (PDMS) coverslip was glued to the bone surrounding the cranial window. PDMS (SYLGARD184, Sigma-Aldrich) film was prepared as described by Heo et al. (Heo, et al. (2016) A soft, transparent, freely accessible cranial window for chronic imaging and electrophysiology, Sci Rep 6: 27818). PDMS coverslip allows for easy insertion of Hamilton needle into the brain tissue for EGF delivery. Dental cement was applied on the skull surface, covering the edge of the coverslip. Seven days after surgery and 24 hours prior to imaging procedure, 10 ng EGF or vehicle was injected into the mice brain through cranial window. […]
Referring to FIG. 14A and FIG. 14B, EGF reduces cell migration speed in vivo detected by intravital microscopy. […] The cell velocity of around 200 cells per mouse were evaluated. […]

In a further test the test system is Mayo PDX cells. As to the kind of experiment: Matrigel invasion assay. It is filed as cell-based, human. Conditions: low-dose EGF (5 ng/ml), 24 hours; GBM12 and GBM6.
The subject of a further test is Met. As to the kind of experiment: Western blot of pMet and total Met. It is filed as cell-based, human. The note with it: HGF 20 ng/ml; GBM12 and GBM6. As to the method: as §1
Referring to FIG. 11A-E, HGF induces invasion in GBM12 and GBM6. […] Cells were seeded on Matrigel coated inserts for 24 hours in the absence or presence of HGF (20 ng/ml). A Western blot analysis of DOCK7 antibody immunoprecipitated extracts from GBM12 and GBM6 treated with HGF for 24 hours (20 ng/ml) is shown in FIG. 11C. A Western blot showing GTP-bound RhoA (RhoA-GTP) and total RhoA levels after HGF treatment for 24 hours in GBM12 and GBM6 is shown in FIG. 11D. A Western blot showing CDC42-GTP and total CDC42 levels after HGF treatment (20 ng/ml) for 24 hours in GBM12 and GBM6. The Western blot images are representative of three independent biological replicates. […]

Method for HB-EGF: To determine EGFR ligands in medium, cells were serum starved for 48 hours, supernatants were collected and concentrated 5- to 10-fold with Pierce protein concentrator (ThermoFisher). HB-EGF, TGFα and EGF protein concentration in supernatant and tumor tissue extracts was determined by ELISA using the corresponding commercial HB-EGF, TGFα and EGF protein detection kits (ThermoFisher) per the manufacturer's instructions.

For the compound `C[C@@H]1CCN(C(=O)CC#N)C[C@@H]1N(C)c1ncnc2[nH]ccc12` [tofacitinib], in the test on HB-EGF, the HB-EGF in supernatant entry is reported as “upregulates”.

For the compound “EGF: Recombinant human EGF (AF-100) from Peprotech; EGFR ligand”, the EMP1 level result in the test on EMP1 is on record as “does not affect EMP1 level”. Moreover, the “movement of glioma cells in live mouse brain” value with GBM12 cells was “almost complete cessation of movement”. Besides, in the test on Mayo PDX cells, the cell invasion entry is “suppressed invasion”.

On to HGF: the ligand for Met, for which the Met phosphorylation entry in the test on Met is listed as “increased”.
